Values of other authors, collected in article PMC12238723, “Phase I Clinical Trial of CVL218, a Novel PARP1/2 Inhibitor, in Patients with Advanced Solid Tumors” (MedComm, 2025).

What was measured:
patients = details: cited from earlier work
[1] = design: method as in PMID 37806255; details: recommended dose of 300 mg BID; cited from earlier work

SMILES	grade ≥3 anemia incidence (patients)	increased risk of MDS/AML compared with placebo (patients) [%]	median Tmax [1] [h]	incidence of MDS/AML (patients)	incidence of anemia (patients) [%]	occurrence of grade ≥3 anemia (patients)	overall incidence of grade ≥3 AEs (patients)	rate of dose reduction due to AEs (patients)	treatment discontinuation rates (patients)	grade ≥3 gastrointestinal AEs (patients; comparison value, no reference given) [%]
NC(=O)c1cccc2cn(-c3ccc([C@@H]4CCCNC4)cc3)nc12 [niraparib]	14.7–22.5%	48	–	–	–	–	–	–	–	–
O=C(c1cc(Cc2n[nH]c(=O)c3ccccc23)ccc1F)N1CCN(C(=O)C2CC2)CC1 [olaparib, Olaparib]	–	158	1.5	approximately 1%	21 to 46	5.1–22%	36–40%	25–29%	6–17%	4.3
